Data on four molecules can be found in DBAASP.

Some test systems named below: Escherichia coli UB1005; Escherichia coli KF130; Escherichia coli DC2; Candida albicans; Candida albicans MDM8; Aspergillus niger; Candida krusei IOC 4559; Listeria monocytogenes; Escherichia coli.
Holding throughout (test): ≥ marks a high value that may be exact or a test limit, other limits are often not marked, values filed in µg/mL are converted to µM
For assay [1], the system named is Escherichia coli IFO 12734.
Assay [2] concerns Staphylococcus aureus IFO 12732.
In assay [3] the test system is Bacillus subtilis IFO 3513.
Assay [4] has as its system Staphylococcus aureus R147.
Assay [5] deals with Enterococcus faecalis ATCC 29212.
Assay [6] deals with Staphylococcus aureus ATCC 25923.
Assay [7] concerns Staphylococcus epidermidis.
Assay [8] has as its system Salmonella enterica subsp. enterica serovar Typhimurium ATCC 14028s.
The subject of assay [9] is Staphylococcus aureus SAP 0017.
For assay [10], the system named is Pseudomonas aeruginosa H374.
Assay [11] concerns Pseudomonas aeruginosa H744.
The subject of assay [12] is Pseudomonas aeruginosa PAO1.
The test system of assay [13] is Candida albicans IOC 4558.
For assay [14], the system named is Candida glabrata IOC 4565.
Assay [15] relates to Candida tropicalis IOC 45608.
In assay [16] the test system is Candida parapsilosis IOC 456416.
For assay [17], the system named is Neisseria gonorrhoeae FA-19.
Assay [18] concerns Neisseria gonorrhoeae F-62.

Converted amounts (≈) assume the structure as drawn.

For the molecule `CC[C@H](C)[C@H](NC(=O)[C@H](CC(C)C)NC(=O)[C@@H]1CCCN1C(=O)[C@H](CCCCN)NC(=O)[C@H](CCCCN)NC(=O)[C@H](Cc1c[nH]c2ccccc12)NC(=O)[C@@H]1CCCN1C(=O)[C@H](CCCCN)NC(=O)[C@H](CC(C)C)NC(=O)[C@@H]1CCCN1C(=O)[C@H](Cc1c[nH]c2ccccc12)NC(=O)[C@H](CCCN=C(N)N)NC(=O)[C@@H](N)CCCN=C(N)N)C(N)=O` [RRWPLKPWKKPLI], the values for the MIC in assay [1], in [2] and in assay [3] were 29.1 µM (≈ 50 µg/mL), 3.64 µM (≈ 6.25 µg/mL) and 3.64 µM (≈ 6.25 µg/mL), respectively.

For the molecule `CC(C)[C@@H]1NC(=O)[C@H](CCCN=C(N)N)NC(=O)[C@H](Cc2ccccc2)NC(=O)[C@@H](NC(=O)[C@H](Cc2c[nH]c3ccccc23)NC(=O)[C@H](CCCN=C(N)N)NC(=O)[C@@H](N)CCCN=C(N)N)CSSC[C@@H](C(=O)N[C@@H](CCCN=C(N)N)C(N)=O)NC(=O)[C@H](CCCCN)NC(=O)[C@H](CCCN=C(N)N)NC(=O)[C@H](Cc2ccc(O)cc2)NC(=O)[C@@H]2CSSC[C@H](NC1=O)C(=O)N[C@@H](Cc1ccc(O)cc1)C(=O)N[C@@H](CCCN=C(N)N)C(=O)NCC(=O)N[C@@H](CCCN=C(N)N)C(=O)N[C@@H](Cc1ccccc1)C(=O)N2` [RRWCFRVCYRGRFCYRKCR], the MIC in assay [4] was 0.382 µM (≈ 0.998 µg/mL); in assay [5], 0.191 µM (≈ 0.499 µg/mL); in assay [6], 0.382 µM (≈ 0.998 µg/mL); in [7], 0.0956 µM (≈ 0.25 µg/mL); in [8] it was 0.191 µM (≈ 0.499 µg/mL); against Escherichia coli UB1005, 0.0956 µM (≈ 0.25 µg/mL). Moreover, the MIC with Escherichia coli KF130 was 0.0956 µM (≈ 0.25 µg/mL); in [9], 0.382 µM (≈ 0.998 µg/mL); in [10], 0.191 µM (≈ 0.499 µg/mL); in the assay with Escherichia coli DC2, 0.0956 µM (≈ 0.25 µg/mL); in [11], 0.382 µM (≈ 0.998 µg/mL); with Candida albicans, 0.765 µM (≈ 2 µg/mL). This molecule also gave an MIC in assay [12] of 0.382 µM (≈ 0.998 µg/mL).

For the molecule `CC[C@H](C)[C@@H]1NC(=O)[C@H](C)NC(=O)[C@@H](NC(=O)[C@@H](NC(=O)[C@@H](N)Cc2ccccc2)[C@@H](C)O)CSSC[C@@H]2NC(=O)[C@H](CCCCN)NC(=O)[C@H](CCCCN)NC(=O)[C@H](CCC(=O)O)NC(=O)CNC(=O)[C@H](CO)NC(=O)CNC(=O)[C@H](CCCCN)NC(=O)[C@@H]3CSSC[C@@H](C(=O)N[C@H](C(=O)N[C@@H](CCCCN)C(=O)N[C@H](C(=O)O)C(C)C)C(C)C)NC(=O)[C@H](C(C)C)NC(=O)[C@H](CC(N)=O)NC(=O)[C@H](Cc4ccccc4)NC(=O)[C@H](CCCCN)NC(=O)[C@H](CSSC[C@H](NC(=O)[C@H](CO)NC1=O)C(=O)N[C@@H](CC(=O)O)C(=O)N[C@@H]([C@@H](C)CC)C(=O)N[C@@H](CCCCN)C(=O)N[C@@H](C(C)C)C(=O)N[C@@H](CC(N)=O)C(=O)NCC(=O)N[C@@H](CCCCN)C(=O)N1CCC[C@H]1C(=O)N3)NC(=O)[C@H](CO)NC(=O)[C@H](Cc1c[nH]c3ccccc13)NC(=O)CNC(=O)CNC(=O)[C@H](CO)NC2=O` [FTCAISCDIKVNGKPCKGSGEKKCSGGWSCKFNVCVKV], the MIC in assay [13] was 3.54 µM (≈ 14.2 µg/mL); in [14], 3.54 µM (≈ 14.2 µg/mL); in assay [15], 3.54 µM (≈ 14.2 µg/mL); in the assay on Candida albicans MDM8, 3.54 µM (≈ 14.2 µg/mL); in the assay with Aspergillus niger it was 7.07 µM (≈ 28.3 µg/mL); in assay [16], 3.54 µM (≈ 14.2 µg/mL). Further, in the assay on Candida krusei IOC 4559, the MIC was 3.54 µM (≈ 14.2 µg/mL).

As to `CC[C@H](C)[C@@H]1NC(=O)[C@H](Cc2c[nH]c3ccccc23)NC(=O)CNC(=O)[C@H](CCCN=C(N)N)NC(=O)[C@@H]2CSSC[C@H](NC1=O)C(=O)N[C@@H](Cc1ccccc1)C(=O)N[C@H](C(=O)N[C@H](C(=O)NCC(=O)N[C@@H](CCCN=C(N)N)C(=O)O)C(C)C)CSSC[C@H](NC(=O)[C@H](CC(C)C)NC(=O)[C@H](CCCN=C(N)N)NC(=O)CNC(=O)CNC(=O)[C@@H](N)CCCN=C(N)N)C(=O)N[C@@H](Cc1ccc(O)cc1)C(=O)N2` [RGGRLCYCRGWICFCVGR], the MIC was 0.902 µM (≈ 1.9 µg/mL) in the assay with Listeria monocytogenes; 0.997 µM (≈ 2.1 µg/mL) against Escherichia coli; 1.66 µM (≈ 3.49 µg/mL) in [17]; 0.57 µM (≈ 1.2 µg/mL) in [18]; 14.4 µM (≈ 30.3 µg/mL) against Candida albicans.

By MIC is commonly meant the lowest concentration found to suppress growth.
